According to patent publication US7820623B2 (priority 2006, dated 2010):
pIC50: −log10 of the molar value. Read-outs that look alike come from different tables or passages of the source.

How the values were obtained:
[1] = test system: thapsigargin-induced IL-2 production in human whole blood
[2] = test system: thapsigargin-induced IFN-g production in human whole blood; assay type: cell-based

With “GGGGS-Osk1 (GGGGSGVIINVKCKISRQCLEPCKKAGMRFGKCMNGKCHCTPK)” the pIC50 ([1]; read-out: WB/IL-2 (IC50)) was 8.87 and the pIC50 ([2]; read-out: WB/IFNg (IC50)) was 8.66.
In the case of “GVAINVKCKISRQCLEPCKKAGMRFGKCMNGKCHCTPK [Ala-3 (SEQ ID No: 1402)]”, the pIC50 ([1]; read-out: Average IC50 IL-2) was 10.05 and the pIC50 ([2]; read-out: Average IC50 IFNg) was 10.00.
“GVIANVKCKISRQCLEPCKKAGMRFGKCMNGKCHCTPK [Ala-4 (SEQ ID No: 1403)]” gave a pIC50 ([1]; read-out: Average IC50 IL-2) of 9.96 and a pIC50 ([2]; read-out: Average IC50 IFNg) of 10.06.
Substance “GVIIAVKCKISRQCLEPCKKAGMRFGKCMNGKCHCTPK [Ala-5 (SEQ ID No: 1404)]” has a pIC50 ([1]; read-out: Average IC50 IL-2) of 10.17 and a pIC50 ([2]; read-out: Average IC50 IFNg) of 10.17.
In the case of “GVIINAKCKISRQCLEPCKKAGMRFGKCMNGKCHCTPK [Ala-6 (SEQ ID No: 1405)]”, the pIC50 ([1]; read-out: Average IC50 IL-2) was 10.13 and the pIC50 ([2]; read-out: Average IC50 IFNg) was 10.09.
In the case of “GVIINVACKISRQCLEPCKKAGMRFGKCMNGKCHCTPK [Ala-7 (SEQ ID No: 1406)]”, the pIC50 ([1]; read-out: Average IC50 IL-2) was 10.17 and the pIC50 ([2]; read-out: Average IC50 IFNg) was 10.23.
Substance “GVIINVKCAISRQCLEPCKKAGMRFGKCMNGKCHCTPK [Ala-9 (SEQ ID No: 1407)]” has a pIC50 ([1]; read-out: Average IC50 IL-2) of 10.10 and a pIC50 ([2]; read-out: Average IC50 IFNg) of 10.15.
“GVIINVKCKASRQCLEPCKKAGMRFGKCMNGKCHCTPK [Ala-10 (SEQ ID No: 1408)]” gave a pIC50 ([1]; read-out: Average IC50 IL-2) of 10.30 and a pIC50 ([2]; read-out: Average IC50 IFNg) of 10.53.
Work on “GVIINVKCKISAQCLEPCKKAGMRFGKCMNGKCHCTPK [Ala-12 (SEQ ID No: 1410)]” yielded a pIC50 ([1]; read-out: Average IC50 IL-2) of 9.91 and a pIC50 ([2]; read-out: Average IC50 IFNg) of 9.81.
GVIINVKCKISPQCLKPCKDAGIRFGKCINGKCACTPK gave a pIC50 ([1]; read-out: Average IC50 IL-2) of 9.29 and a pIC50 ([2]; read-out: Average IC50 IFNg) of 9.29.
In the case of “GVIINVKCKISRACLEPCKKAGMRFGKCMNGKCHCTPK [Ala-13 (SEQ ID No: 1411)]”, the pIC50 ([1]; read-out: Average IC50 IL-2) was 9.83 and the pIC50 ([2]; read-out: Average IC50 IFNg) was 9.88.
Substance “GVIINVKCKISRQCAEPCKKAGMRFGKCMNGKCHCTPK [Ala-15 (SEQ ID No: 1412)]” has a pIC50 ([1]; read-out: Average IC50 IL-2) of 9.97 and a pIC50 ([2]; read-out: Average IC50 IFNg) of 9.97.
Substance “GVIINVKCKISRQCLAPCKKAGMRFGKCMNGKCHCTPK [Ala-16 (SEQ ID No: 1413)]” has a pIC50 ([1]; read-out: Average IC50 IL-2) of 10.00 and a pIC50 ([2]; read-out: Average IC50 IFNg) of 10.00.
